Target: T1, PTP PEST (Homo sapiens, UniProt Q05209)
T1 construct: made in house; host or cells: E. coli BL-21 (pGEX 6P-1)
T1 sequence (Q05209 1-343 limits assumed): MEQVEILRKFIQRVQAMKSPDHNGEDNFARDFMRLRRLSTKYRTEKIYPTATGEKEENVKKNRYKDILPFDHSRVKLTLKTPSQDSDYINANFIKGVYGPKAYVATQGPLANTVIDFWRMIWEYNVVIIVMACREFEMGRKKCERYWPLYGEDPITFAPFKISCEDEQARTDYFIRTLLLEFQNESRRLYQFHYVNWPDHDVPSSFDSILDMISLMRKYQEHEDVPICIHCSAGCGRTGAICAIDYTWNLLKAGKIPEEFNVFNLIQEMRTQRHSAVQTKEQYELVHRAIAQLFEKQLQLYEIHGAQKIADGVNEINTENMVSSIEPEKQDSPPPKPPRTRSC
Experiment: PTP IC50 assay, pNPP or FDP as substrate
Format: biochemical
Conditions: 25° C.
Protocol: (§1) The following in vitro assay procedure is preferred to determine the level of activity and effect of the different compounds of the present invention on one or more of the PTPs. Similar assays can be designed along the same lines for any PTP using techniques well known in the art.
(§2) The catalytic assays described herein are performed in a 96-well format. The general procedure begins with the determination of PTP optimal pH using a three-component buffer system that minimizes ionic strength variations across a wide range of buffer pH. Next, the Michaelis-Menten constant, or Km, is determined for each specific substrate-PTP system. This Km value is subsequently used as the substrate reaction concentration for compound screening. Finally, the test PTP is exposed to varying concentrations of compound for fifteen minutes and allowed to react with substrate for ten minutes. The results are plotted as percent inhibition versus compound concentration and the IC50 interpolated from the plot.
(§3) All assays were performed using pNPP or FDP as substrate. The optimum pH was determined for each PTP used.
(§4) PTPase activity was assayed at 25° C. in a 100-μl reaction mixture containing an appropriate concentration of pNPP or FDP as substrate. The reaction was initiated by addition of the PTP and quenched after 10 min by addition of 50 μl of IN NaOH. The non-enzymatic hydrolysis of the substrate was corrected by measuring the control without the addition of the enzyme. The amount of p-nitrophenol produced was determined from the absorbance at 410 nm. To determine the kinetic parameter, Km, the initial velocities were measured at various substrate concentrations and the data were fitted to the Michaelis equation where velocity=(Vmax*[S])/(Km+[S]), and [S]=substrate reaction concentration.
(§5) The effect of the compounds on PTP was evaluated at 25° C. using pNPP or FDP as substrate. PTP was pre-incubated for fifteen minutes with various concentrations of compound. Substrate was then added at a fixed concentration (usually equal to the Km previously calculated). After 10 minutes, NaOH was added to stop the reaction. The hydrolysis of pNPP was followed at 410 nm on the Biotek Powerwave 200 microplate scanning spectrophotometer. The percent inhibition was calculated as follows: Percent Inhibition=[(control signal−compound signal)/control signal] ×100%. The IC50 was then determined by interpolation of a percent inhibition versus compound concentration plot.
(§6) Plasmids designed for bacterial GST-PTP fusion protein expression were derived by insertion of PCR-generated human PTP fragments into pGEX vectors (Pharmacia Biotech). Several of these constructs were then used to subclone phosphatases into pFastBac-1for expression in Sf-9 insect cells. Oligonucleotides used for the initial amplification of PTP genes are shown below. The cDNAs were prepared using the Gilbo BRL superscript preamplification system on RNAs purchased from Clontech.
The PTP PEST CDNA was amplified from an HeLa cDNA library (Clonetech RNA) using the following oligonucleotides: 5′oligo: 5′-[…]-3′ (SEQ ID NO: 14) 3′oligo: 5′-[…]-3′ (SEQ ID NO: 15) It was subsequently ligated into the Eco RI/Xho I sites of pGEX 6P-1.

Row | IC50 [µM] | SMILES
1 | > 100 | O=S(=O)(c1ccc(COCc2ccc(S(=O)(=O)C(F)(F)F)cc2)cc1)C(F)(F)F [Example 1, Bis (4-trifluoromethylsulfonylbenzyl) ether]
2 | 25.6 | O=S(=O)(c1ccc(COc2ccc(S(=O)(=O)C(F)(F)F)cc2)cc1)C(F)(F)F [Example 2, 4-Trifluoromethylsulfonylbenzyl 4-trifluoromethylsulfonylphenyl ether]
3 | > 100 | O=C(c1ccccc1)N(Cc1ccc(S(=O)(=O)C(F)(F)F)cc1)Cc1ccc(S(=O)(=O)C(F)(F)F)cc1 [Example 3, N,N-Bis(4-trifluoromethylsulfonylbenzyl)benzamide]
4 | > 100 | O=S(=O)(c1ccc(CCc2ccc(S(=O)(=O)C(F)(F)F)cc2)cc1)C(F)(F)F [Example 4, 1,2-Bis(4-trifluoromethylsulfonylphenyl)ethane]
5 | > 100 | O=C(NCc1ccc(S(=O)(=O)C(F)(F)F)cc1)c1ccc(S(=O)(=O)C(F)(F)F)cc1 [Example 5, N-(4-Trifluoromethylsulfonylbenzyl)-4-trifluoromethylsulfonylbenzamide]
6 | > 100 | O=C(NCc1ccc(S(=O)(=O)C(F)(F)F)cc1)c1ccccc1 [Example 6, N-(4-Trifluoromethylsulfonylbenzyl)benzamide]
7 | 13.3 | O=S(=O)(Nc1ccc(CCc2ccc(NS(=O)(=O)C(F)(F)F)cc2)cc1)C(F)(F)F [Example 66, 1,2-Bis(4-trifluoromethylsulfonamidophenyl)ethane]
8 | 10.5 | Cc1cc(NS(=O)(=O)C(F)(F)F)ccc1CCc1ccc(NS(=O)(=O)C(F)(F)F)cc1C [Example 67, 1,2-Bis(2-methyl-4-trifluoromethylsulfonamidophenyl)ethane]
9 | 9.33 | CC(C)(COc1ccc(NS(=O)(=O)C(F)(F)F)cc1)COc1ccc(NS(=O)(=O)C(F)(F)F)cc1 [Example 68, 1,3-Bis(4-trifluoromethylsulfonamidophenoxy)-2,2-dimethylpropane]
10 | 7.86 | O=S(=O)(Nc1ccc(OCCCOc2ccc(NS(=O)(=O)C(F)(F)F)cc2)cc1)C(F)(F)F [Example 69, 1,3-Bis(4-trifluoromethylsulfonamidophenoxy)propane]
11 | 6.75 | O=S(=O)(Nc1ccc(OCCCCOc2ccc(NS(=O)(=O)C(F)(F)F)cc2)cc1)C(F)(F)F [Example 70, 1,4-Bis(4-trifluoromethylsulfonamidophenoxy)butane]
12 | 0.98 | O=S(=O)(Nc1ccc(Oc2ccc(Oc3ccc(NS(=O)(=O)C(F)(F)F)cc3)cc2)cc1)C(F)(F)F [Example 71, 1,4-Bis(4-trifluoromethylsulfonamidophenoxy)benzene]

Target: T2, PTP DEP1 (Homo sapiens, UniProt Q12913)
T2 construct: GST-fusion proteins encompassing the entire cytoplasmic domain was done by PCR; made in house; host or cells: E. coli BL-21 (pGEX 2T)
T2 sequence (Q12913 997-1337 limits assumed): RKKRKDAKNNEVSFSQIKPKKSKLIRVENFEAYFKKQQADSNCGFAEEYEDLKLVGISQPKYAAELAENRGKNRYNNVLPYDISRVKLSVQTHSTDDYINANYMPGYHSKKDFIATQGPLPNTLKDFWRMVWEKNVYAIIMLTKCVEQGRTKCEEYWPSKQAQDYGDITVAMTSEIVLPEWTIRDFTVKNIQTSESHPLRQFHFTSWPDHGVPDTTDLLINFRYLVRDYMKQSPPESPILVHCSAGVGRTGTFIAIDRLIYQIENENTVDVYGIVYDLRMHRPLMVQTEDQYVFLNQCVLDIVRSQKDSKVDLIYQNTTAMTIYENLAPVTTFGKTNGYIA
Experiment: PTP IC50 assay, pNPP or FDP as substrate
Format: biochemical
Conditions: 25° C.
Protocol: as §1, §2, §3, §4, §5, §6
The full length DEP1 cDNA was isolated from a human mammary cDNA library (Clontech). The construction of GST-fusion proteins encompassing the entire cytoplasmic domain was done by PCR using the following oligos; 5′oligo: 5′-[…]-3′ (SEQ ID NO: 20) 3′oligo: 5′-[…]-3′ (SEQ ID NO: 21) It was subsequently ligated into the Eco RI/Bam H1 sites of pGEX 2T.

Row | IC50 [µM] | SMILES
13 | 24.2 | O=S(=O)(c1ccc(COCc2ccc(S(=O)(=O)C(F)(F)F)cc2)cc1)C(F)(F)F [Example 1, Bis (4-trifluoromethylsulfonylbenzyl) ether]
14 | 16.5 | O=S(=O)(c1ccc(COc2ccc(S(=O)(=O)C(F)(F)F)cc2)cc1)C(F)(F)F [Example 2, 4-Trifluoromethylsulfonylbenzyl 4-trifluoromethylsulfonylphenyl ether]
15 | 40.9 | O=C(c1ccccc1)N(Cc1ccc(S(=O)(=O)C(F)(F)F)cc1)Cc1ccc(S(=O)(=O)C(F)(F)F)cc1 [Example 3, N,N-Bis(4-trifluoromethylsulfonylbenzyl)benzamide]
16 | 26.1 | O=S(=O)(c1ccc(CCc2ccc(S(=O)(=O)C(F)(F)F)cc2)cc1)C(F)(F)F [Example 4, 1,2-Bis(4-trifluoromethylsulfonylphenyl)ethane]
17 | > 100 | O=C(NCc1ccc(S(=O)(=O)C(F)(F)F)cc1)c1ccc(S(=O)(=O)C(F)(F)F)cc1 [Example 5, N-(4-Trifluoromethylsulfonylbenzyl)-4-trifluoromethylsulfonylbenzamide]
18 | > 100 | O=C(NCc1ccc(S(=O)(=O)C(F)(F)F)cc1)c1ccccc1 [Example 6, N-(4-Trifluoromethylsulfonylbenzyl)benzamide]
19 | > 100 | O=S(=O)(Nc1ccc(CCc2ccc(NS(=O)(=O)C(F)(F)F)cc2)cc1)C(F)(F)F [Example 66, 1,2-Bis(4-trifluoromethylsulfonamidophenyl)ethane]
20 | 85.6 | Cc1cc(NS(=O)(=O)C(F)(F)F)ccc1CCc1ccc(NS(=O)(=O)C(F)(F)F)cc1C [Example 67, 1,2-Bis(2-methyl-4-trifluoromethylsulfonamidophenyl)ethane]
21 | 25 | CC(C)(COc1ccc(NS(=O)(=O)C(F)(F)F)cc1)COc1ccc(NS(=O)(=O)C(F)(F)F)cc1 [Example 68, 1,3-Bis(4-trifluoromethylsulfonamidophenoxy)-2,2-dimethylpropane]
22 | > 100 | O=S(=O)(Nc1ccc(OCCCOc2ccc(NS(=O)(=O)C(F)(F)F)cc2)cc1)C(F)(F)F [Example 69, 1,3-Bis(4-trifluoromethylsulfonamidophenoxy)propane]
23 | 24.5 | O=S(=O)(Nc1ccc(OCCCCOc2ccc(NS(=O)(=O)C(F)(F)F)cc2)cc1)C(F)(F)F [Example 70, 1,4-Bis(4-trifluoromethylsulfonamidophenoxy)butane]
24 | 49 | O=S(=O)(Nc1ccc(Oc2ccc(Oc3ccc(NS(=O)(=O)C(F)(F)F)cc3)cc2)cc1)C(F)(F)F [Example 71, 1,4-Bis(4-trifluoromethylsulfonamidophenoxy)benzene]

System: PTPs
Experiment: Direct comparison of R groups against the PTPs
Format: biochemical, human
Conditions: change of the R group from CF3SO2NH—
Protocol: as §5

Row | SMILES | activity relative to the CF3SO2NH— compound
25 | CS(=O)(=O)Nc1ccc(Oc2ccc(Oc3ccc(NS(C)(=O)=O)cc3)cc2)cc1 [CH3SO2NH—] | dramatic decrease in activity
26 | Nc1ccc(Oc2ccc(Oc3ccc(N)cc3)cc2)cc1 [NH2] | complete loss of activity
